Patent US12258328B2, “6-membered heteroaryl-containing aminopyridine compounds as EGFR inhibitors” (YUHAN CORPORATION, priority 2021, dated 2025)
Where two headings read alike, the source gives them in different places.

Legend:
EGFR del19/T790M/C797S = EGFR del19/T790M/C797S (Homo sapiens, UniProt P00533, C797S/DEL746-750/T790M); assay: Biochemical EGFR kinase assay (Lance Ultra TR-FRET), triple mutant del19/T790M/C797S
Method: (§1) Biochemical EGFR kinase assays were conducted using Lance Ultra time-resolved fluorescence resonance energy transfer (TR-FRET) technology from Perkin-Elmer. Compounds of the invention were initially diluted to 20 mM in 100% DMSO for storage and made into kinase buffer solution to create a compound concentration ranging from 0.003 μM and 10 μM.
(§2) Each kinase reactions were incubated at room temperature for 1 hour and then stopped by the addition of 4 μL of stop solution (10 mM EDTA). The specific Europium-labeled-anti-phosphopeptide antibody (PerkinElmer, AD0069) diluted in LANCE detection buffer was then added to a final concentration of 2 nM. After 60 minutes incubation at room temperature the LANCE signal was measured on an EnVision Multilabel Reader (Perkin-Elmer). Excitation wavelength was set at 320 nm and emission monitored at 615 nm (donor) and 665 nm (acceptor). The IC50 values were determined using GraphPad prism software (GraphPad Software, Inc., San Diego, CA, USA).

EGFR L858R/T790M/C797S = EGFR L858R/T790M/C797S (Homo sapiens, UniProt P00533, C797S/L858R/T790M); assay: Biochemical EGFR kinase assay (Lance Ultra TR-FRET), triple mutant L858R/T790M/C797S
Method: as §1, §2

EGFR del19/C797S = EGFR del19/C797S (Homo sapiens, UniProt P00533, C797S/DEL746-750); assay: Biochemical EGFR kinase assay (Lance Ultra TR-FRET), double mutant del19/C797S
Method: as §1, §2

EGFR L858R/C797S = EGFR L858R/C797S (Homo sapiens, UniProt P00533, C797S/L858R); assay: Biochemical EGFR kinase assay (Lance Ultra TR-FRET), double mutant L858R/C797S
Method: as §1, §2

EGFR wildtype = EGFR wildtype (Homo sapiens, UniProt P00533); assay: Biochemical EGFR kinase assay (Lance Ultra TR-FRET), wildtype
Method: as §1, §2

[1] = ATP at Km, read-out: IC50 del19/T790M/C797S, Km ATP
[2] = IC50 del19/T790M/C797S, 100 μM ATP
[3] = IC50 L858R/T790M/C797S, 100 μM ATP
[4] = ATP at Km, read-out: IC50 del19/C797S, Km ATP
[5] = ATP at Km, read-out: IC50 L858R/C797S, Km ATP
[6] = ATP at Km, read-out: IC50 WT, Km ATP
[7] = IC50 del19/T790M/C797S (nM) 100 μM ATP, 100 μM ATP
[8] = Km ATP, read-out: IC50 del19/T790M/C797S (nM) Km ATP
[9] = IC50 L858R/T790M/C797S (nM) 100 μM ATP, 100 μM ATP
[10] = Km ATP, read-out: IC50 L858R/T790M/C797S (nM) Km ATP
[11] = IC50 del19/C797S (nM) 100 μM ATP, 100 μM ATP
[12] = Km ATP, read-out: IC50 del19/C797S (nM) Km ATP
[13] = IC50 L858R/C797S (nM) 100 μM ATP, 100 μM ATP
[14] = Km ATP, read-out: IC50 L858R/C797S (nM) Km ATP
[15] = IC50 WT (nM) 100 μM ATP, 100 μM ATP
[16] = Km ATP, read-out: IC50 WT (nM) Km ATP
[17] = ATP at Km, read-out: IC50 L858R/T790M/C797S, Km ATP

Sequence of EGFR del19/T790M/C797S (P00533 with tags, fused parts or gaps DEL746-750/T790M/C797S): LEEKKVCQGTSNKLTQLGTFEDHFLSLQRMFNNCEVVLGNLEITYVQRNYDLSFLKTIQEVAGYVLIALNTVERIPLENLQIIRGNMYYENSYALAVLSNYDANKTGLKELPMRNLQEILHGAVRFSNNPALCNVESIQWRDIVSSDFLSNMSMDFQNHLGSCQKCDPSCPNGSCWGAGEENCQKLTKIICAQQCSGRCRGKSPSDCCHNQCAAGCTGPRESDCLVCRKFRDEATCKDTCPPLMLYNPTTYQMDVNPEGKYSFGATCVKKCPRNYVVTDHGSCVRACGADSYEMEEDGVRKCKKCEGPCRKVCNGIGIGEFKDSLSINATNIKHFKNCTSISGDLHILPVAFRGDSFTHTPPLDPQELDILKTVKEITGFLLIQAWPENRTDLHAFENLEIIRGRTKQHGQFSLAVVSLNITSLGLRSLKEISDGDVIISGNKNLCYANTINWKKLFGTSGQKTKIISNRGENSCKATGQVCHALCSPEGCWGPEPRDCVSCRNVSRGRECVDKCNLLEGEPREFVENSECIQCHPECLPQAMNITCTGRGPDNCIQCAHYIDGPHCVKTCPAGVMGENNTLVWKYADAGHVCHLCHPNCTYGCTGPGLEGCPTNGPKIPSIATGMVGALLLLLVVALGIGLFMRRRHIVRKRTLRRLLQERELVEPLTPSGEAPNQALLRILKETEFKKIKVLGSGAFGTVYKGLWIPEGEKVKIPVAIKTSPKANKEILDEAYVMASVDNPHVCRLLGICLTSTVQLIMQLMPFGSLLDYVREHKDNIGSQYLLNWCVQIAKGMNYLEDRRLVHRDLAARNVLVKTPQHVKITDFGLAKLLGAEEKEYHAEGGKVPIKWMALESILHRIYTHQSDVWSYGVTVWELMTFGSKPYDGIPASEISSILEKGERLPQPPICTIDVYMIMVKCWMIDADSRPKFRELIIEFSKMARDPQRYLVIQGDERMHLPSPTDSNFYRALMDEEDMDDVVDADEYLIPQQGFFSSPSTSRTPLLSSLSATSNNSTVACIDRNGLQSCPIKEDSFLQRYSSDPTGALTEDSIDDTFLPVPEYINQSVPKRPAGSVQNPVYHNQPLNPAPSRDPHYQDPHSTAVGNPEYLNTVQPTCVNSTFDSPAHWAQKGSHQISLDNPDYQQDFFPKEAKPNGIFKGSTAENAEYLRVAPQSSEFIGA
Sequence of EGFR wildtype (P00533 25-1210): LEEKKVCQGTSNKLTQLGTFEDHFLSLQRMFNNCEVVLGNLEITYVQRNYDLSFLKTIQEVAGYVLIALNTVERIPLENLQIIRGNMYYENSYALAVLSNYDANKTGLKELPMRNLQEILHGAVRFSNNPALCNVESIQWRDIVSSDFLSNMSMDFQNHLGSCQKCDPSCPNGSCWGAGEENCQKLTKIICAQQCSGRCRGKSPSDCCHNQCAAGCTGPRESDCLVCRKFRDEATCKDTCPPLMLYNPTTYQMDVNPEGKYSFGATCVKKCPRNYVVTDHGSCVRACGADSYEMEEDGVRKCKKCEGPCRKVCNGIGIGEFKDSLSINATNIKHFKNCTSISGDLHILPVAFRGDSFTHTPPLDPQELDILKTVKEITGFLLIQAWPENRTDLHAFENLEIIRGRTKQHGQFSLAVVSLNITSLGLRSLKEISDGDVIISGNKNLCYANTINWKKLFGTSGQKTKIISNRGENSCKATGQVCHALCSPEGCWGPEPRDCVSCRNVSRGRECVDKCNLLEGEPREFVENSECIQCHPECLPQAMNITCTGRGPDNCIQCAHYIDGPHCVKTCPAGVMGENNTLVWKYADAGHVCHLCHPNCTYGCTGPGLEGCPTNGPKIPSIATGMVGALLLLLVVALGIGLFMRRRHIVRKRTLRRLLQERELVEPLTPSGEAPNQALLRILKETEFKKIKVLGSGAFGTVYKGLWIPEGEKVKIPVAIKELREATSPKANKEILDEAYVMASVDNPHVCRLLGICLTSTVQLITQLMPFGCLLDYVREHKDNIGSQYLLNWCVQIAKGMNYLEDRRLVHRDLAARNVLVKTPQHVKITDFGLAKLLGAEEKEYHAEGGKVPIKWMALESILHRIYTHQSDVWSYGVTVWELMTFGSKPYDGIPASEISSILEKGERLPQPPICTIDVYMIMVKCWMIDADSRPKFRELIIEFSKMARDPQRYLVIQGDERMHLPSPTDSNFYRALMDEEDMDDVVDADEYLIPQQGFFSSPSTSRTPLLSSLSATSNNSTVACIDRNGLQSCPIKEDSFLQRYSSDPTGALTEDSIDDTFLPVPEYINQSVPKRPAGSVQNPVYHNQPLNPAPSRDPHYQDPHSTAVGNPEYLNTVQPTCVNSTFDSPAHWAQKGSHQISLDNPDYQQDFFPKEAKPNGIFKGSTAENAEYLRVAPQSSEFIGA
Sequence of EGFR L858R/T790M/C797S (P00533 25-1210 T790M/C797S/L858R): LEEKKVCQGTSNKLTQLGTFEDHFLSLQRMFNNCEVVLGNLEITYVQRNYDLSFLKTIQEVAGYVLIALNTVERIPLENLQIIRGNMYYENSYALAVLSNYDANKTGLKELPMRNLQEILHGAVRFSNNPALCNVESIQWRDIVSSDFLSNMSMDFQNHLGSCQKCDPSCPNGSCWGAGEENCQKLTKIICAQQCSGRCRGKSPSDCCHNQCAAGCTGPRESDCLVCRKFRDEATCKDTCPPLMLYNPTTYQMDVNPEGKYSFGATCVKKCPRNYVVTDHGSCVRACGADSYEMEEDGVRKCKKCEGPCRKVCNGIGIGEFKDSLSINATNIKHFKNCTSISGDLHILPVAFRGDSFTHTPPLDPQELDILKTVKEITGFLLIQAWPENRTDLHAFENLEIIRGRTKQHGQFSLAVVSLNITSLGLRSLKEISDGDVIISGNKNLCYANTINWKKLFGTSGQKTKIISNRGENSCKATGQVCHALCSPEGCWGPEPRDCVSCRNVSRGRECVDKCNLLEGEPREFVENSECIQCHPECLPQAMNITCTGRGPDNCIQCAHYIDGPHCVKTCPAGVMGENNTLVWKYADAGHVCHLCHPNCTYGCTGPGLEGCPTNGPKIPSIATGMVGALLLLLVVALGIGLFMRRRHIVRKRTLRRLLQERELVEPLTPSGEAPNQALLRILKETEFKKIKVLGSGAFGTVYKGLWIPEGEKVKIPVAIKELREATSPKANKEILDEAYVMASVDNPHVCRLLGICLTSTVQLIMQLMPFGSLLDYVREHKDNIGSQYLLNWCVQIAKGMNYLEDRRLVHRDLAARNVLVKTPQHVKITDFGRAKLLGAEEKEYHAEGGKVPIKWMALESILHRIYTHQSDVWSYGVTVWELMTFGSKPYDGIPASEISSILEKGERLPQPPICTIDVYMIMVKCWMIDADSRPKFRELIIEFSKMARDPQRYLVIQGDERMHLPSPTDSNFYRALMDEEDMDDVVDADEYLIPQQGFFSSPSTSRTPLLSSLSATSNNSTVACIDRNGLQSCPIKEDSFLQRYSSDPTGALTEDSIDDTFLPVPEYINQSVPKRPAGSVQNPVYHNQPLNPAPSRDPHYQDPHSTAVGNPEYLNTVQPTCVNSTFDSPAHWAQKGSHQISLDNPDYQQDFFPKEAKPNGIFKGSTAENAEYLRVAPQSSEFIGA
Sequence of EGFR del19/C797S (P00533 with tags, fused parts or gaps DEL746-750/C797S): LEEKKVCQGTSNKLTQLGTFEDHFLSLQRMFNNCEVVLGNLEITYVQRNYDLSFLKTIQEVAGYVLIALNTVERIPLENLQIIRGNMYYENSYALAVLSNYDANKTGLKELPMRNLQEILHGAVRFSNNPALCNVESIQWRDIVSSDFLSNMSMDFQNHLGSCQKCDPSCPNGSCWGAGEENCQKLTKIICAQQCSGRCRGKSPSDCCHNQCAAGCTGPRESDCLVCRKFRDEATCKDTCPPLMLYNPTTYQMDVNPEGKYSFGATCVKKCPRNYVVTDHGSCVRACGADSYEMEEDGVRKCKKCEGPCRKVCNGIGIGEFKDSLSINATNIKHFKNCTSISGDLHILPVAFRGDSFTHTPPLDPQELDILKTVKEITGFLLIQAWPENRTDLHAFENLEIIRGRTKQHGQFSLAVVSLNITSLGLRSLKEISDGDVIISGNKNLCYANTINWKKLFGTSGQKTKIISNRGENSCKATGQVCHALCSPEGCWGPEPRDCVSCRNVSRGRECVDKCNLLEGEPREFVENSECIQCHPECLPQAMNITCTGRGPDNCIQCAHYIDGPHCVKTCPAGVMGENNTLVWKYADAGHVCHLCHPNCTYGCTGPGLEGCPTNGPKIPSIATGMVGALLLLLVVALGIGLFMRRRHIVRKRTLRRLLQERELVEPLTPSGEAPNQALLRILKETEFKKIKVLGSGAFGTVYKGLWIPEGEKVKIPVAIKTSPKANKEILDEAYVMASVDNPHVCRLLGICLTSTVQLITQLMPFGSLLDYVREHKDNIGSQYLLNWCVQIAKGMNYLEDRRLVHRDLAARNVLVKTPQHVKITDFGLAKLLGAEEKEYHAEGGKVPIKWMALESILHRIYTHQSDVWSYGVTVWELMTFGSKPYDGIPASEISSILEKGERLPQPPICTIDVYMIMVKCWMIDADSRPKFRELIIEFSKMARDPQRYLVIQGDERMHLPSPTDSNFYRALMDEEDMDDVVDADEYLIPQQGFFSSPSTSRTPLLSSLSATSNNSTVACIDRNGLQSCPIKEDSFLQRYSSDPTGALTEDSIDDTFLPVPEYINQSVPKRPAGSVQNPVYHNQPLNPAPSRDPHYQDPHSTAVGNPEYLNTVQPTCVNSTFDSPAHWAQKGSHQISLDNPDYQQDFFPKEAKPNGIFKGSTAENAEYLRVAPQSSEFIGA

## C[C@]1(O)CC[C@@H](Nc2cc(Nc3ccnc(-c4cnn(S(=O)(=O)C5CC5)c4)n3)ncc2-c2cccc(NCCO)n2)CC1 [Example 285, (1s,4s)-4-((6′-((2-(1-(Cyclopropylsulfonyl)-1H-pyrazol-4-yl)pyrimidin-4-yl)amino)-6-((2-hydroxyethyl)amino)-[2,3′-bipyridin]-4′-yl)amino)-1-methylcyclohexan-1-ol]
EGFR del19/T790M/C797S; [1]
  IC50: 0.1 nM
EGFR del19/T790M/C797S; [2]
  IC50: 0.2 nM
EGFR L858R/T790M/C797S; [3]
  IC50: 0.2 nM
EGFR del19/C797S; [4]
  IC50: 0.4 nM
EGFR del19/C797S; IC50 del19/C797S, 100 μM ATP
  IC50: 0.9 nM
EGFR L858R/C797S; [5]
  IC50: 0.5 nM
EGFR L858R/C797S; IC50 L858R/C797S, 100 μM ATP
  IC50: 14.1 nM
EGFR wildtype; [6]
  IC50: 7.8 nM
EGFR wildtype; IC50 WT, 100 μM ATP
  IC50: 6310 nM

## C[C@]1(O)CC[C@@H](Nc2cc(Nc3ccnc(-c4cnn(S(=O)(=O)C5CC5)c4)n3)ncc2-c2ccc(C(F)(F)F)nn2)CC1 [Example 51, (1s,4s)-4-((2-((2-(1-(Cyclopropylsulfonyl)-1H-pyrazol-4-yl)pyrimidin-4-yl)amino)-5-(6-(trifluoromethyl)pyridazin-3-yl)pyridin-4-yl)amino)-1-methylcyclohexan-1-ol]
EGFR del19/T790M/C797S; [7]
  IC50: 0.6 nM
EGFR del19/T790M/C797S; [8]
  IC50: 0.8 nM
EGFR L858R/T790M/C797S; [9]
  IC50: 0.6 nM
EGFR L858R/T790M/C797S; [10]
  IC50: 0.3 nM
EGFR del19/C797S; [11]
  IC50: 10.6 nM
EGFR del19/C797S; [12]
  IC50: 3.1 nM
EGFR L858R/C797S; [13]
  IC50: 16.7 nM
EGFR L858R/C797S; [14]
  IC50: 1 nM
EGFR wildtype; [15]
  IC50: > 10000 nM

## CN(C)c1ccc(-c2cnc(Nc3ccnc(-c4cnn(S(=O)(=O)C5CC5)c4)n3)cc2N[C@H]2CC[C@@](C)(O)CC2)nc1 [Example 40, (1s,4s)-4-((6′-((2-(1-(Cyclopropylsulfonyl)-1H-pyrazol-4-yl)pyrimidin-4-yl)amino)-5-(dimethylamino)-[2,3′-bipyridin]-4′-yl)amino)-1-methylcyclohexan-1-ol]
EGFR del19/T790M/C797S; [7]
  IC50: 2.1 nM
EGFR del19/T790M/C797S; [8]
  IC50: 0.7 nM
EGFR L858R/T790M/C797S; [9]
  IC50: 1.7 nM
EGFR L858R/T790M/C797S; [10]
  IC50: 0.5 nM
EGFR del19/C797S; [11]
  IC50: 3.2 nM
EGFR del19/C797S; [12]
  IC50: 2.3 nM
EGFR L858R/C797S; [13]
  IC50: 7.7 nM
EGFR L858R/C797S; [14]
  IC50: 1.7 nM
EGFR wildtype; [15]
  IC50: 1440 nM
EGFR wildtype; [16]
  IC50: 5 nM

## O=S(=O)(C1CC1)n1cc(-c2nccc(Nc3cc(N[C@H]4CC[C@@H](CO)CC4)c(-c4cnc(N5CCC(F)(F)CC5)cn4)cn3)n2)cn1 [Example 70, ((1s,4s)-4-((2-((2-(1-(Cyclopropylsulfonyl)-1H-pyrazol-4-yl)pyrimidin-4-yl)amino)-5-(5-(4,4-difluoropiperidin-1-yl)pyrazin-2-yl)pyridin-4-yl)amino)cyclohexyl)methanol]
EGFR del19/T790M/C797S; [7]
  IC50: 3.9 nM
EGFR L858R/T790M/C797S; [9]
  IC50: 4.9 nM
EGFR del19/C797S; [11]
  IC50: 13.1 nM
EGFR L858R/C797S; [13]
  IC50: 81.1 nM
EGFR wildtype; [15]
  IC50: > 10000 nM

## C[C@]1(O)CC[C@@H](Nc2cc(Nc3ccnc(-c4cnn(S(=O)(=O)C5CC5)c4)n3)ncc2-c2cnc(OC(F)F)cn2)CC1 [Example 128, (1s,4s)-4-((2-((2-(1-(Cyclopropylsulfonyl)-1H-pyrazol-4-yl)pyrimidin-4-yl)amino)-5-(5-(difluoromethoxy)pyrazin-2-yl)pyridin-4-yl)amino)-1-methylcyclohexan-1-ol]
EGFR L858R/T790M/C797S; [10]
  IC50: 0.5 nM
EGFR del19/C797S; [12]
  IC50: 41.2 nM
EGFR L858R/C797S; [14]
  IC50: 95.8 nM
EGFR wildtype; [16]
  IC50: > 10000 nM

## CC(C)(O)c1ccc(-c2cnc(Nc3ccnc(-c4cnn(S(=O)(=O)C5CC5)c4)n3)cc2NC2CCN(CCF)CC2)nc1 [Example 176, 2-(6′-((2-(1-(Cyclopropylsulfonyl)-1H-pyrazol-4-yl)pyrimidin-4-yl)amino)-4′-((1-(2-fluoroethyl)piperidin-4-yl)amino)-[2,3′-bipyridin]-5-yl)propan-2-ol]
EGFR del19/T790M/C797S; [1]
  IC50: 0.2 nM
EGFR L858R/T790M/C797S; [17]
  IC50: 0.4 nM
EGFR del19/C797S; [4]
  IC50: 5.5 nM
EGFR wildtype; [6]
  IC50: 43.4 nM

## COc1ccc(-c2cnc(Nc3ccnc(-c4cnn(S(=O)(=O)C5CC5)c4)n3)cc2N[C@H]2CC[C@@](C)(O)CC2)nn1 [Example 53, (1s,4s)-4-((2-((2-(1-(Cyclopropylsulfonyl)-1H-pyrazol-4-yl)pyrimidin-4-yl)amino)-5-(6-methoxypyridazin-3-yl)pyridin-4-yl)amino)-1-methylcyclohexan-1-ol]
EGFR del19/T790M/C797S; [7]
  IC50: 0.4 nM
EGFR del19/T790M/C797S; [8]
  IC50: 0.4 nM
EGFR L858R/T790M/C797S; [9]
  IC50: 0.5 nM
EGFR L858R/T790M/C797S; [10]
  IC50: 0.1 nM
EGFR L858R/C797S; [13]
  IC50: 1 nM
EGFR L858R/C797S; [14]
  IC50: 1 nM
EGFR wildtype; [15]
  IC50: > 10000 nM
EGFR wildtype; [16]
  IC50: 6.9 nM

## CN1CCC(Oc2ccc(-c3cnc(Nc4nc(-c5cnn(S(=O)(=O)C6CC6)c5)ncc4F)cc3N[C@H]3CC[C@@](C)(O)CC3)nc2)CC1 [Example 300, (1s,4s)-4-((6′-((2-(1-(Cyclopropylsulfonyl)-1H-pyrazol-4-yl)-5-fluoropyrimidin-4-yl)amino)-5-((1-methylpiperidin-4-yl)oxy)-[2,3′-bipyridin]-4′-yl)amino)-1-methylcyclohexan-1-ol]
EGFR del19/T790M/C797S; [1]
  IC50: 0.3 nM
EGFR L858R/T790M/C797S; [17]
  IC50: 0.1 nM
EGFR del19/C797S; [4]
  IC50: 0.4 nM
EGFR L858R/C797S; [5]
  IC50: 0.2 nM

## C[C@]1(O)CC[C@@H](Nc2cc(Nc3ccnc(-c4cnn(S(=O)(=O)C5CC5)c4)n3)ncc2-c2ccc(S(=O)(=O)N3CCOCC3)cn2)CC1 [Example 182, (1s,4s)-4-((6′-((2-(1-(Cyclopropylsulfonyl)-1H-pyrazol-4-yl)pyrimidin-4-yl)amino)-5-(morpholinosulfonyl)-[2,3′-bipyridin]-4′-yl)amino)-1-methylcyclohexan-1-ol]
EGFR del19/T790M/C797S; [1]
  IC50: 2.9 nM
EGFR del19/T790M/C797S; [2]
  IC50: 6.4 nM
EGFR del19/C797S; IC50 del19/C797S, 100 μM ATP
  IC50: 3.7 nM
EGFR L858R/C797S; [5]
  IC50: 0.9 nM
EGFR L858R/C797S; IC50 L858R/C797S, 100 μM ATP
  IC50: 3.5 nM
EGFR wildtype; IC50 WT, 100 μM ATP
  IC50: > 10000 nM

## CN1CCC(Oc2cnc(-c3cnc(Nc4ccnc(-c5cnn(S(=O)(=O)C6CC6)c5)n4)cc3N[C@H]3CC[C@@](C)(O)CC3)cn2)CC1 [Example 145, (1s,4s)-4-((2-((2-(1-(Cyclopropylsulfonyl)-1H-pyrazol-4-yl)pyrimidin-4-yl)amino)-5-(5-((1-methylpiperidin-4-yl)oxy)pyrazin-2-yl)pyridin-4-yl)amino)-1-methylcyclohexan-1-ol]
EGFR del19/T790M/C797S; [8]
  IC50: 0.1 nM
EGFR L858R/T790M/C797S; [10]
  IC50: 0.03 nM
EGFR del19/C797S; [12]
  IC50: 0.3 nM
EGFR L858R/C797S; [14]
  IC50: 0.1 nM

## CC(C)Nc1cc(Nc2ccnc(-c3cnn(S(=O)(=O)C4CC4)c3)n2)ncc1-c1ccc(C(C)(O)C(F)(F)F)cn1 (stereo not drawn) [Example 295, 2-(6′-((2-(1-(Cyclopropylsulfonyl)-1H-pyrazol-4-yl)pyrimidin-4-yl)amino)-4′-(isopropylamino)-[2,3′-bipyridin]-5-yl)-1,1,1-trifluoropropan-2-ol]
EGFR del19/T790M/C797S; [1]
  IC50: 10.4 nM
EGFR del19/C797S; [4]
  IC50: 49.2 nM
EGFR L858R/C797S; [5]
  IC50: 26.5 nM
EGFR wildtype; [6]
  IC50: 44.7 nM

## CC(C)(O)[C@H]1CC[C@@H](Nc2cc(Nc3ccnc(-c4cnn(S(=O)(=O)C5CC5)c4)n3)ncc2-c2ccc(OCCO)cn2)CC1 [Example 207, 2-((1s,4s)-4-((6′-((2-(1-(Cyclopropylsulfonyl)-1H-pyrazol-4-yl)pyrimidin-4-yl)amino)-5-(2-hydroxyethoxy)-[2,3′-bipyridin]-4′-yl)amino)cyclohexyl)propan-2-ol]
EGFR del19/T790M/C797S; [1]
  IC50: 1.3 nM
EGFR del19/T790M/C797S; [2]
  IC50: 1.6 nM
EGFR L858R/T790M/C797S; [17]
  IC50: 0.3 nM
EGFR L858R/T790M/C797S; [3]
  IC50: 0.8 nM
EGFR L858R/C797S; [5]
  IC50: 1 nM
EGFR L858R/C797S; IC50 L858R/C797S, 100 μM ATP
  IC50: 14 nM
EGFR wildtype; [6]
  IC50: 3.8 nM
EGFR wildtype; IC50 WT, 100 μM ATP
  IC50: 1790 nM
